In brackets after ≈: the same amount, converted by molar mass. Read-outs that look alike come from different tables or passages of the source.
How the values were obtained:
[1] = Acute Intracisternal Neurotoxicity in Dogs; conditions: dog, in vivo; dogs, intracisternal, 244 mg I/kg; read-out: Respiratory arrest (death)
Description: (§1) Adult dogs of either sex were employed for this procedure and were briefly anesthetized with thiopentol sodium during the injection of a solution of the PRODUCT. The compound was administered into cerebrospinal fluid at the cisterna magna at varying concentrations but at a constant 0.5 ml/kg volume dose. Animals were thereafter observed for neurotoxicity with the following results: […]

[2] = test system: dogs; assay: Acute Intracisternal Neurotoxicity in Dogs; conditions: dog, in vivo
Description: as §1

[3] = in vivo; conditions: mouse, in vivo
Excerpt: (§2) The following pharmacological studies were run on the N-(2-hydroxyethyl)-2,4,6-triiodo-3,5-bis-(2-keto-L-gulonamido)benzamide prepared according to Method B (PRODUCT).
(§3) Employing a slightly modified version of the technique developed by Haley and McCormick (Brit. J. Pharmacol. 12: 12-15, 1957), young adult male and female Swiss mice received injections of a solution of the PRODUCT directly into lateral ventricles and brain tissue.

[4] = test system: Swiss mice; assay: Acute Intracerebral Toxicity in Mice; conditions: mice, intracerebral, 350-450 mg I/ml, seven day observation; 95% confidence limits 560-4806
Excerpt: as §2, §3

[5] = in vivo; conditions: rat, in vivo
Excerpt: as §2
(§4) A variation of the technique described by Melartin et al. (Invest. Radiol. 5: 13-21, 1970) was utilized to evaluate lethal effects of a solution of the PRODUCT after injection into cerebrospinal fluid at the cisterna magna. Young adult male and female Sprague Dawley rats were used. After dosing, the animals were housed individually and observed for immediate reactions and periodically for a two day observation period.

[6] = test system: Sprague Dawley rats; assay: Acute Intracisternal Toxicity in Rats; conditions: rats, intracisternal, 400 mg I/ml, two day observation; 95% confidence limits 462-655
Excerpt: as §2, §4

[7] = Solubility in water; type: physicochemical
Description: (§5) Nmr data are consistent with the assigned structure IX. The compound softens with darkening at 233°-238° and decomposes above 240°.
Elemental analysis; Calcd for C21 H26 I3 N3 O14 (after correction for 3.58% H2 O): C, 26.29; H, 3.13; I, 39.67; N, 4.38; Found: C, 26.20; H, 3.12; N, 4.09; I, not determined.

[8] = test system: vascular and urinary systems; assay: Radiographic visualization in mouse after intravenous injection; type: in vivo; conditions: I.V.
Description: A female mouse (19 g) was anesthetized with sodium pentobarbital (60 mg/kg, i/p.).

[9] = Stability in aqueous solution by tlc and lc analysis; type: physicochemical
Description: as §5

[10] = test system: subarachnoid space; assay: Radiographic visualization in rat after intracisternal injection; type: in vivo; conditions: 175 mg I/kg (37% I solution) intracisternally, 10 seconds after administration
Description: A pentobarbital-anesthetized rat (233 gm) received 175 mg I/kg (37% I solution) of the compound intracisternally.

[11] = in vivo; conditions: mouse, in vivo, iv
Description: as §2
(§6) A solution of the PRODUCT was injected into the lateral tail vein of yound adult male and female Swiss mice at a rate of 1 ml/min.

[12] = test system: Swiss mice; assay: Acute Intravenous Toxicity in Mice; conditions: mice, intravenous, 400 mg I/ml, 1 ml/min, seven day observation; 95% confidence limits 16,499-20,075
Description: as §2, §6

O=C(Nc1c(I)c(NC(=O)C(=O)[C@@H](O)[C@H](O)[C@@H](O)CO)c(I)c(C(=O)NCCO)c1I)C(=O)[C@@H](O)[C@H](O)[C@@H](O)CO [IX, N-(2-Hydroxyethyl)-2,4,6-triiodo-3,5-bis-(2-keto-L-gulonamido)benzamide]
mortality [1]: 50% | Minimum Convulsion Dose [2]: > 244 mg I/kg | LD50 at 168 h [3]: 3980 mg/kg | LD50 [4]: 1,640 mg I/kg | LD50 at 48 h [5]: 1340 mg/kg | LD50 [6]: 550 mg I/kg | solubility ([7]; Method A product, read-out: highly water soluble): ≥ 1000 mg/mL | solubility ([7]; Method B product, read-out: solubility): 1000 mg/mL (≈ 1080 mM) | visualization of the vascular system, whole body left lateral radiograph ([8]; female mouse, 10,000 mg I/kg (37% I solution), 5 seconds after administration): good visualization of the vascular system | images of the vascular system, posteroanterior radiograph ([8]; mouse, 30 seconds after contrast administration): good images of the vascular | images of the urinary system, posteroanterior radiograph ([8]; mouse, 5 minutes after contrast administration): good images of the vascular and urinary systems | stable in aqueous solution [9]: stable in aqueous solution | visualization of the subarachnoid space in the upper cervical, cisternal and basal cistern regions [10]: good visualization of the subarachnoid space | LD50 at 168 h [11]: 44200 mg/kg | LD50 [12]: 18,200 mg I/kg
